Where two headings read alike, the source gives them in different places.
What was measured:
[1] = tested on: intracellular MRSA; type: cell-based, Staphylococcus aureus; details: for %GFP+ rep 1 / z-scoreMRSA+ rep 1: replicate 1; for %GFP+ rep 2 / z-scoreMRSA+ rep 2: replicate 2; for %GFP+ rep 3 / z-scoreMRSA+ rep 3: replicate 3; for z-scoreMRSA+ mean: mean of 3 replicates
Method in brief: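 HeLa cells were infected with GFP-expressing MRSA (mean MOI 6.8) for 1 h, treated with 30 µg/ml gentamicin for 15 min, then incubated overnight at 37°C with kinase inhibitors and 5 µg/ml gentamicin. Flow cytometry gave % GFP-positive cells, with cell count as viability. Hits were z-score ≤ -2 (infection) and ≥ -3 (count) versus DMSO.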

[2] = tested on: HeLa cells; assay: Compound screen by flow cytometry: HeLa cell count as surrogate readout of cell viability (z-scoreHeLa); type: cell-based, human; details: for cell count rep 1 / z-scoreHeLa rep 1: replicate 1; for cell count rep 2 / z-scoreHeLa rep 2: replicate 2; for cell count rep 3 / z-scoreHeLa rep 3: replicate 3; for z-scoreHeLa mean: mean of 3 replicates
Method in brief: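 The viability surrogate was the count of fixed HeLa cells by flow cytometry, converted to z-scores against DMSO controls with values deviating two-fold excluded. Before counting, cells had been infected with MRSA for 1 h and cleared of extracellular bacteria with gentamicin. They were then exposed overnight to kinase inhibitors in triplicate.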

[3] = PKIS compound screen raw data, MRSA-infected HeLa cells
[4] = Yes/No: effect without cell death
[5] = compound screen, MRSA-infected HeLa cells
[6] = PKIS compound screen raw data, HeLa cell count
[7] = compound screen, HeLa cell count
[8] = PKIS compound screen, Yes/No call
[9] = PKIS compound screen, Yes/No call (effect without cell death)
[10] = PKIS compounds raw data, MRSA-infected HeLa cells
[11] = PKIS compounds raw data, HeLa cell count
[12] = PKIS compound screen, MRSA-infected HeLa cells
[13] = PKIS compound screen, Yes/No call on z-scoreMRSA+
[14] = PKIS compound screen, HeLa cell count
[15] = PKIS compound screen, Yes/No call on z-scoreHeLa

COc1ccc(CNC(=O)NC2CCN(c3ccnc(Nc4ccc(F)cc4)n3)CC2)cc1 [GSK1379788A]
%GFP+ rep 1 [1, 3]: 25.3% | %GFP+ rep 2 [1, 3]: 23.5% | %GFP+ rep 3 [1, 3]: 21.9% | effect ([1]; Yes/No call from z-scoreMRSA+): No | hit [1, 4]: No | z-scoreMRSA+ mean [1, 5]: 0.044 | z-scoreMRSA+ rep 1 [1, 5]: 0.00598 | z-scoreMRSA+ rep 2 [1, 5]: 0.22 | z-scoreMRSA+ rep 3 [1, 5]: -0.09 | cell count rep 1 [2, 6]: 6376 | cell count rep 2 [2, 6]: 5935 | cell count rep 3 [2, 6]: 7721 | cell death ([2]; Yes/No call from z-scoreHeLa): No | z-scoreHeLa mean [2, 7]: 1.43 | z-scoreHeLa rep 1 [2, 7]: 1.46 | z-scoreHeLa rep 2 [2, 7]: 1.26 | z-scoreHeLa rep 3 [2, 7]: 1.57

O=C(Nc1ccccc1F)NC1CCN(c2ccnc(Nc3ccc(F)cc3)n2)CC1 [GSK1379800A]
effect [1, 8]: No | hit [1, 9]: No | z-scoreMRSA+ mean ([1]; PKIS compound screen): 0.29 | z-scoreMRSA+ rep 1 ([1]; PKIS compound screen): -0.13 | z-scoreMRSA+ rep 2 ([1]; PKIS compound screen): 0.53 | z-scoreMRSA+ rep 3 ([1]; PKIS compound screen): 0.47 | %GFP+ rep 1 [1, 10]: 26.4% | %GFP+ rep 2 [1, 10]: 28.8% | %GFP+ rep 3 [1, 10]: 29.8% | cell death [2, 8]: No | z-scoreHeLa mean ([2]; PKIS compound screen): 0.79 | z-scoreHeLa rep 1 ([2]; PKIS compound screen): 0.80 | z-scoreHeLa rep 2 ([2]; PKIS compound screen): 0.32 | z-scoreHeLa rep 3 ([2]; PKIS compound screen): 1.24 | cell count rep 1 [2, 11]: 7378 | cell count rep 2 [2, 11]: 6492 | cell count rep 3 [2, 11]: 7551

COc1ccc(Nc2nccc(N3CCC(NC(=O)C(C)c4ccc(Cl)cc4)CC3)n2)cc1 (stereo not drawn) [GSK1379812A]
%GFP+ rep 1 [1, 3]: 20.9% | %GFP+ rep 2 [1, 3]: 22.5% | %GFP+ rep 3 [1, 3]: 23.9% | z-scoreMRSA+ mean [1, 12]: 0.71 | z-scoreMRSA+ rep 1 [1, 12]: 0.57 | z-scoreMRSA+ rep 2 [1, 12]: 0.84 | z-scoreMRSA+ rep 3 [1, 12]: 0.73 | effect [1, 8]: No | hit [1, 9]: No | effect [1, 13]: No | z-scoreMRSA+ mean ([1]; PKIS compound screen): 0.50 | z-scoreMRSA+ rep 1 ([1]; PKIS compound screen): 0.81 | z-scoreMRSA+ rep 2 ([1]; PKIS compound screen): 0.11 | z-scoreMRSA+ rep 3 ([1]; PKIS compound screen): 0.60 | %GFP+ rep 1 [1, 10]: 31.2% | %GFP+ rep 2 [1, 10]: 26.6% | %GFP+ rep 3 [1, 10]: 30.5% | cell count rep 1 [2, 6]: 31442 | cell count rep 2 [2, 6]: 27526 | cell count rep 3 [2, 6]: 20779 | z-scoreHeLa mean [2, 14]: 0.32 | z-scoreHeLa rep 1 [2, 14]: 0.21 | z-scoreHeLa rep 2 [2, 14]: 0.39 | z-scoreHeLa rep 3 [2, 14]: 0.36 | cell death [2, 8]: No | cell death [2, 15]: No | z-scoreHeLa mean ([2]; PKIS compound screen): 0.45 | z-scoreHeLa rep 1 ([2]; PKIS compound screen): 0.54 | z-scoreHeLa rep 2 ([2]; PKIS compound screen): 0.66 | z-scoreHeLa rep 3 ([2]; PKIS compound screen): 0.15 | cell count rep 1 [2, 11]: 6940 | cell count rep 2 [2, 11]: 7004 | cell count rep 3 [2, 11]: 5839

COC(=O)c1cccc(NC(=O)NC2CCN(c3ccnc(NCc4ccc(F)cc4)n3)CC2)c1 [GSK1379860A]
%GFP+ rep 1 [1, 3]: 17.4% | %GFP+ rep 2 [1, 3]: 15.1% | %GFP+ rep 3 [1, 3]: 20.5% | z-scoreMRSA+ mean [1, 12]: -0.58 | z-scoreMRSA+ rep 1 [1, 12]: -0.37 | z-scoreMRSA+ rep 2 [1, 12]: -1.18 | z-scoreMRSA+ rep 3 [1, 12]: -0.20 | effect [1, 8]: No | hit [1, 9]: No | effect [1, 13]: No | z-scoreMRSA+ mean ([1]; PKIS compound screen): 0.11 | z-scoreMRSA+ rep 1 ([1]; PKIS compound screen): 0.51 | z-scoreMRSA+ rep 2 ([1]; PKIS compound screen): -0.14 | z-scoreMRSA+ rep 3 ([1]; PKIS compound screen): -0.03 | %GFP+ rep 1 [1, 10]: 29.7% | %GFP+ rep 2 [1, 10]: 25.3% | %GFP+ rep 3 [1, 10]: 27.1% | cell count rep 1 [2, 6]: 26314 | cell count rep 2 [2, 6]: 10320 | cell count rep 3 [2, 6]: 10213 | z-scoreHeLa mean [2, 14]: -1.64 | z-scoreHeLa rep 1 [2, 14]: -0.66 | z-scoreHeLa rep 2 [2, 14]: -2.56 | z-scoreHeLa rep 3 [2, 14]: -1.70 | cell death [2, 8]: No | cell death [2, 15]: No | z-scoreHeLa mean ([2]; PKIS compound screen): -1.76 | z-scoreHeLa rep 1 ([2]; PKIS compound screen): -1.69 | z-scoreHeLa rep 2 ([2]; PKIS compound screen): -2.71 | z-scoreHeLa rep 3 ([2]; PKIS compound screen): -0.89 | cell count rep 1 [2, 11]: 3229 | cell count rep 2 [2, 11]: 1923 | cell count rep 3 [2, 11]: 4200

Cc1ccc(C)c(NC(=O)NCCNc2ccnc(Nc3ccc(F)cc3)n2)c1 [GSK1379878A]
%GFP+ rep 1 [1, 3]: 23.2% | %GFP+ rep 2 [1, 3]: 23.5% | %GFP+ rep 3 [1, 3]: 22.5% | effect ([1]; Yes/No call from z-scoreMRSA+): No | hit [1, 4]: No | z-scoreMRSA+ mean [1, 5]: 0.88 | z-scoreMRSA+ rep 1 [1, 5]: 1.18 | z-scoreMRSA+ rep 2 [1, 5]: 1.12 | z-scoreMRSA+ rep 3 [1, 5]: 0.35 | cell count rep 1 [2, 6]: 23015 | cell count rep 2 [2, 6]: 22114 | cell count rep 3 [2, 6]: 18414 | cell death ([2]; Yes/No call from z-scoreHeLa): No | z-scoreHeLa mean [2, 7]: -0.62 | z-scoreHeLa rep 1 [2, 7]: -1.22 | z-scoreHeLa rep 2 [2, 7]: -0.54 | z-scoreHeLa rep 3 [2, 7]: -0.10

Reference: publication PMC10999543, “Identification of kinase modulators as host-directed therapeutics against intracellular methicillin-resistant Staphylococcus aureus” (Frontiers in Cellular and Infection Microbiology, 2024)
